In patent US6541467B1, “Thrombin inhibitors having a lactam at P3” (Corvas International, Inc., priority 2000, dated 2003) one finds IC50 and Ki data, which are given here for 16 compounds.

pIC50, pKi: −log10 of the molar value.

As a reminder, the pIC50 is −log10 of the IC50, conventionally taken in molar units. As usually defined, the pKi is the Ki on a negative log10 scale, so that one unit is a factor of ten. A lower pKi goes with a large Ki.

Common to all, as to format: biochemical
The target in assay [1] is T1, Factor Xa (Homo sapiens, UniProt P00742).
T1 construct: purchased Enzyme Research Laboratories, Inc. (South Bend, Ind.)
T1 sequence (P00742 235-488 limits assumed): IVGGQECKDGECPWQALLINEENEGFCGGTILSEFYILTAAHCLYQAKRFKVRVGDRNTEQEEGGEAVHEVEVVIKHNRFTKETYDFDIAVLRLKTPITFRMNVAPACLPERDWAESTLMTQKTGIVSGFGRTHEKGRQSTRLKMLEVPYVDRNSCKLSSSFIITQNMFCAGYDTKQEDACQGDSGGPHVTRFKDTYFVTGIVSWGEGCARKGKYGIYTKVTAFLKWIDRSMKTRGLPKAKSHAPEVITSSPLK
T1 sequence (P00742 41-179 partner limits assumed): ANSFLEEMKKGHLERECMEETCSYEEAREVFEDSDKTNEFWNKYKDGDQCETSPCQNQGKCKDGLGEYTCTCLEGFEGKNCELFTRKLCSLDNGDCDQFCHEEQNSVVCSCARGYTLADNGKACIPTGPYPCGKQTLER
The experiment in a line: Factor Xa chromogenic enzyme assay. The settings on record: read-out: fXa IC50. As to the method: (§1) The ability of compounds of the present invention to act as a selective inhibitor of thrombin activity was assessed by determining the concentration of test-compound which inhibited the activity of this enzyme by 50%, (IC50), and comparing this value to that determined for all or some of the following related serine proteases: recombinant tissue plasminogen activator (rt-PA), plasmin, activated protein C, chymotrypsin, factor Xa and trypsin.
(§2) The buffer used for all assays was HBSA (10 mM HEPES, pH 7.5, 150 mM sodium chloride, 0.1% bovine serum albumin).
(§3) The assay for IC50 determinations was conducted by combining in appropriate wells of a Corning microtiter plate, 50 microliters of HBSA, 50 microliters of the test compound at a specified concentration (covering a broad concentration range) diluted in HBSA (or HBSA alone for V0 (uninhibited velocity) measurement), and 50 microliters of the enzyme diluted in HBSA. Following a 30 minute incubation at ambient temperature, 50 microliters of the substrate at the concentrations specified below were added to the wells, yielding a final total volume of 200 microliters. The initial velocity of chromogenic substrate hydrolysis was measured by the change in absorbance at 405 nm using a Thermo Max® Kinetic Microplate Reader over a 5 minute period in which less than 5% of the added substrate was utilized. The concentration of added inhibitor which caused a 50% decrease in the initial rate of hydrolysis was defined as the IC50 value.
Factor Xa catalytic activity was determined using the chromogenic substrate S-2765 (N-benzyloxycarbonyl-D-arginine-L-glycine-L-arginine-p-nitroaniline), obtained from DiaPharma Group (Franklin, Ohio). All substrates were reconstituted in deionized water prior to use. […] Purified human Factor X was obtained from Enzyme Research Laboratories, Inc. (South Bend, Ind.) and Factor Xa (FXa) was activated and prepared from it as described [Bock, P. E., Craig, P. A., Olson, S. T., and Singh, P. Arch. Biochem. Biophys. 273:375-388 (1989)]. The enzyme was diluted into HBSA prior to assay in which the final concentration was 0.25 nM.

Assay [2] addresses T2, human α-thrombin (Homo sapiens, UniProt P00734).
T2 construct: Purified human α-thrombin; purchased Enzyme Research Laboratories, Inc
The experiment in a line: Thrombin (fIIa) chromogenic enzyme assay. The settings on record: for pIC50: 0 min. How it is done:
For screening compounds using these assays, the compounds of the present invention are dissolved in buffer to give solutions containing concentrations such that assay concentrations range from 0 to 100 micromolar. In the assays for thrombin, plasmin, t-PA, aPC, chymotrypsin, and trypsin, a chromogenic synthetic substrate is added to a solution containing test compound and the enzyme of interest and the residual catalytic activity of that enzyme is determined spectrophometrically. The IC50 of a compound of the present invention is determined from the rate of substrate turnover caused by the specific enzyme being measured. IC50 is the concentration of test compound which gives 50% inhibition of the rate of substrate turnover. Likewise, the Ki of a compound of the present invention is determined from the rate of substrate turnover caused by the specific enzyme being measured at various […] concentrations. Example A provides exemplars of in vitro assays used to select the compounds of the present invention.
as §1, §2
as §3, with “Following a 30 minute incubation at ambient temperature, 50 microliters of the substrate at the concentrations specified below were added to the wells, yielding a final total volume of 200 microliters.” left out
Enzyme activity was determined using the chromogenic substrate, Pefachrome t-PA (CH3SO2-D-hexahydrotyrosine-glycyl-L-Arginine-p-nitroaniline, obtained from Pentapharm Ltd.). The substrate was reconstituted in deionized water prior to use. Purified human α-thrombin was obtained from Enzyme Research Laboratories, Inc. The buffer used for all assays was HBSA (10 mM HEPES, pH 7.5, 150 mM sodium chloride, 0.1% bovine serum albumin).
The initial velocity of Pefachrome t-PA hydrolysis was measured by the change in absorbance at 405 nm using a Thermo Max® Kinetic Microplate Reader over a 5 minute period in which less than 5% of the added substrate was utilized. The concentration of:added inhibitor which caused a 50% decrease in the initial rate of hydrolysis was defined as the IC50 value.

The target of assay [3] is T3, bovine pancreatic trypsin (Bos taurus, UniProt P00760).
T3 sequence (P00760 24-246): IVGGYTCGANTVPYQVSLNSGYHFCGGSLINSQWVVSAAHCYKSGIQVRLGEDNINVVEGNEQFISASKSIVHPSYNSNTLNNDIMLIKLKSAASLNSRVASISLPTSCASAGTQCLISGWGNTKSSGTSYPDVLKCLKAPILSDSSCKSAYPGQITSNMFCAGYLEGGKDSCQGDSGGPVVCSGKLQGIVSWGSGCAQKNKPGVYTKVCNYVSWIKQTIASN
The experiment in a line: Trypsin chromogenic enzyme assay. How it is done: as §1, §2, §3
Trypsin catalytic activity was determined using the chromogenic substrate, S-2222 (benzoyl-L-isoleucine-L-glutamic acid-[gamma-methyl ester]-L-arginine-p-nitroanilide), which was obtained from DiaPharma Group. […] Purified (3×-crystallized; TRL3) bovine pancreatic trypsin was obtained from Worthington Biochemical Corp. The enzyme was reconstituted in deionized water and diluted into HBSA prior to assay in which the final concentration was 0.5 nM.

Assay [4] has as its target T4, human plasmin (Homo sapiens, UniProt P00747).
T4 construct: Purified human plasmin; purchased Enzyme Research Laboratories, Inc
The experiment in a line: Plasmin chromogenic enzyme assay. How it is done:
as §1, §2, §3
Plasmin catalytic activity was determined using the chromogenic substrate, S-2366 [L-pyroglutamyl-L-prolyl-L-arginine-p-nitroaniline hydrochloride], which was obtained from DiaPharma group. The substrate was made up in deionized water followed by dilution in HBSA prior to the assay in which the final concentration was 300 micromolar (about 2:.5-times Km). Purified human plasmin was obtained from Enzyme Research Laboratories, Inc. The enzyme was diluted into HBSA prior to assay in which the final concentration was 1.0 nM.

T4 sequence (P00747 581-810 limits assumed): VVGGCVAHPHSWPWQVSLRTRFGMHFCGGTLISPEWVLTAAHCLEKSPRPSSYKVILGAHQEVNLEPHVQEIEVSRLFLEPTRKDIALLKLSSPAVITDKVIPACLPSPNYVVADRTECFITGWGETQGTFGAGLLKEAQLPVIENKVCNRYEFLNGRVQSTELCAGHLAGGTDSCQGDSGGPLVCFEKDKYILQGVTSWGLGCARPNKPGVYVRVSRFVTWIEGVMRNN
T4 sequence (P00747 97-580 partner limits assumed): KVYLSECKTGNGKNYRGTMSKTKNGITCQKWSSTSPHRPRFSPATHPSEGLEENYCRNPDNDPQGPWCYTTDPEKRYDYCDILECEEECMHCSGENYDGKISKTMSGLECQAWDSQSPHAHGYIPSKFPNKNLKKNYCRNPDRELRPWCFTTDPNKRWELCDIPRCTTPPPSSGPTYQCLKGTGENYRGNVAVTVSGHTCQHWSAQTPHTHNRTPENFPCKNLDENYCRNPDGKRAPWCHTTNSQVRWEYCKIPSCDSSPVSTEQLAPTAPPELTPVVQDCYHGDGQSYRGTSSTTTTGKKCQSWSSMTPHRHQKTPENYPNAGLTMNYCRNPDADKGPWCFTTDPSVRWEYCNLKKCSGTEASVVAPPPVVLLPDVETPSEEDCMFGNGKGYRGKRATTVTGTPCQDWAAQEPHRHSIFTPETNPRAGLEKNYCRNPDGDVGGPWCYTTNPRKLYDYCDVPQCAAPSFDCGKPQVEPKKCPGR

Turning to `N=C(N)c1ccc(CNC(=O)CN2CCCC[C@H](NS(=O)(=O)Cc3ccccc3)C2=O)cc1` [Example 67], the negative logarithm of the IC50 (pIC50) in assay [1] is 5.60 to 6.52; in assay [2], 6.52 to 7.00; in assay [3], 5.60 to 6.52; in assay [4] it was no more than 5.60. Moreover, the pKi in assay [2] was no less than 7.00.

On to `N=C(N)N1CCC(CNC(=O)CN2CCCC[C@H](NS(=O)(=O)c3ccccc3)C2=O)CC1` [Example 41, 3-(Benzenesulfonyl)amino-1-(1-amidino-4-methylenecarboxamido-methylpiperidinyl)-4,5,6,7-tetrahydroazepin-2-one], for which the pIC50 in assay [1] is no more than 5.60; in assay [2] it was 5.60 to 6.52; in assay [3], no more than 5.60; in assay [4], no more than 5.60. The pKi in assay [2] was no less than 7.00.

Regarding `N=C(N)c1ccc(CNC(=O)CN2CCCC[C@H](NS(=O)(=O)c3ccc4c(c3)CCO4)C2=O)s1` [Example 24, 3-(S)-(2,3-Dihydrobenzo[b]furanyl-5-sulfonyl)amino-1-(2-amindino-5-methylenecarboxamidomethylthiophenyl)-4,5,6,7-tetrahydroazepin-2-one], the negative-log IC50 (pIC50) in assay [1] was 5.60 to 6.52; in assay [2], no less than 7.00; in assay [3], 6.52 to 7.00; in assay [4] it was no more than 5.60. The pKi in assay [2] is no less than 7.00.

Regarding `Cc1nc(N)ccc1CNC(=O)CN1CCCC[C@H](NS(=O)(=O)c2ccc3c(c2)CCO3)C1=O` [Example 35, 3-(S)-(2,3-Dihydrobenzo[b]furanyl-5-sulfonyl)amino-1-(2-amino-6-methyl-5-methylenecarboxamidomethylpyridinyl)-4,5,6,7-tetrahydroazepin-2-one], the pIC50 in assay [1] is no more than 5.60; in assay [2], 6.52 to 7.00; in assay [3], no more than 5.60; in assay [4] it was no more than 5.60. Besides, the pKi in assay [2] is no less than 7.00.

As to `N/C(=N\O)c1ccc(CNC(=O)CN2CCCC[C@H](NS(=O)(=O)c3ccc4c(c3)CCO4)C2=O)cc1` [Example 37], the pIC50 in assay [1] was no more than 5.60; in assay [2], 5.60 to 6.52; in assay [3], 5.60 to 6.52; in assay [4], no more than 5.60. The negative-log Ki (pKi) in assay [2] was 6.52 to 7.00.

`Cc1nc(N)ccc1CNC(=O)CN1CCCC[C@H](NS(=O)(=O)Cc2ccccc2)C1=O` [Example 66]: the negative logarithm of the IC50 (pIC50) was no more than 5.60 in assay [1], 5.60 to 6.52 in assay [2], no more than 5.60 in assay [3] and no more than 5.60 in assay [4]. In assay [2], this compound showed a pKi of no less than 7.00.

Consider `N[C@H]1CC[C@H](CNC(=O)CN2CCCC[C@H](NS(=O)(=O)Cc3ccccc3)C2=O)CC1` [Example 65], for which the pIC50 is no more than 5.60 in assay [1], 5.60 to 6.52 in assay [2], no more than 5.60 in assay [3] and no more than 5.60 in assay [4]. In addition, in assay [2], the negative logarithm of the Ki (pKi) was 6.52 to 7.00.

For the compound `N=C(N)c1ccc(CNC(=O)CN2CCCC[C@H](NS(=O)(=O)c3ccc4c(c3)CCO4)C2=O)c(F)c1` [Example 39], the negative logarithm of the IC50 (pIC50) in assay [1] was no more than 5.60; in assay [2] it was 6.52 to 7.00; in assay [3], 6.52 to 7.00; in assay [4] it was no more than 5.60. For the same compound, in assay [2], the negative-log Ki (pKi) is no less than 7.00.

As to `COc1ccc(OC)c(S(=O)(=O)N[C@H]2CCCCN(CC(=O)NCC3CCN(C(=N)N)CC3)C2=O)c1` [Example 42], the pIC50 in assay [1] is no more than 5.60; in assay [2] it was 5.60 to 6.52; in assay [3] it was no more than 5.60; in assay [4] it was no more than 5.60. In addition, the pKi in assay [2] was 6.52 to 7.00.

Consider `N=C(N)c1ccc(CNC(=O)CN2CCCC[C@H](NS(=O)(=O)c3ccc4ccccc4c3)C2=O)cc1` [Example 44], for which the pIC50 in assay [1] is no more than 5.60; in assay [2], 5.60 to 6.52; in assay [3], 6.52 to 7.00; in assay [4], no more than 5.60. In addition, in assay [2], the pKi is 6.52 to 7.00.

As for `N=C(N)N1CCC(CNC(=O)CN2CCCC[C@H](NS(=O)(=O)c3ccc4c(c3)CCO4)C2=O)CC1` [Example 36, 3-(S)-(2,3-Dihydrobenzo[b]furanyl-5-sulfonyl)amino-1-(1-amidino-4-methylenecarboxamidomethylperidinyl)-4,5,6,7-tetrahydroazepin-2-one], the pIC50 in assay [1] was no more than 5.60; in assay [2] it was 6.52 to 7.00; in assay [3] it was no more than 5.60; in assay [4] it was no more than 5.60. In assay [2], this compound had a negative-log Ki (pKi) of no less than 7.00.

With `N=C(N)c1ccc(CNC(=O)CN2C(=O)[C@@H](NS(=O)(=O)c3ccc4c(c3)CCO4)CCc3ccccc32)cc1` [Example 55, 3-(S)-(2,3-Dihydrobenzo[b]furanyl-5-sulfonyl)amino-1-(4-amidinylphenylmethylenecarboxamido)-4,5-dihydrobenzo[f]azepin-2-one], the pIC50 in assay [1] was no more than 5.60; in assay [2], no less than 7.00; in assay [3], 5.60 to 6.52; in assay [4], no more than 5.60. In assay [2], this compound gave a pKi of no less than 7.00.

Take `N=C(N)c1ccc(CNC(=O)CN2CCCC[C@H](NS(=O)(=O)c3ccccc3)C2=O)cc1` [Example 45]: the negative-log IC50 (pIC50) was no more than 5.60 in assay [1], 6.52 to 7.00 in assay [2], 6.52 to 7.00 in assay [3] and no more than 5.60 in assay [4]. This compound also showed a pKi in assay [2] of no less than 7.00.

`COc1ccc(S(=O)(=O)N[C@H]2CCCCN(CC(=O)NCc3ccc(C(=N)N)cc3)C2=O)cc1OC` [Example 47]: the negative logarithm of the IC50 (pIC50) is no more than 5.60 in assay [1], no less than 7.00 in assay [2], 6.52 to 7.00 in assay [3] and no more than 5.60 in assay [4]. In assay [2], this compound showed a negative logarithm of the Ki (pKi) of no less than 7.00.

Consider `N=C(N)N1CCC(CNC(=O)CN2CCCC[C@H](NS(=O)(=O)c3ccc4ccccc4c3)C2=O)CC1` [Example 40], for which the negative-log IC50 (pIC50) in assay [1], in assay [2], in assay [3] and in assay [4] was no more than 5.60 in each case. In addition, in assay [2], the pKi is no more than 5.60.

For the compound `COc1ccc(S(=O)(=O)N[C@H]2CCCCN(CC(=O)NCC3CCN(C(=N)N)CC3)C2=O)cc1OC` [Example 43], the negative-log IC50 (pIC50) in assay [1] is no more than 5.60; in assay [2], 5.60 to 6.52; in assay [3], no more than 5.60; in assay [4], no more than 5.60. In assay [2], this compound had a pKi of no less than 7.00.
